Assay results: patent publication US6620803B2, “Cosmetic or dermatological use of 7-hydroxylated steroids” (Vitasterol SARL, priority 1997, dated 2003)

Assays:
[1] = tested on: thymocytes of C57BL/6 mice (mouse T cells); assay: Cell apoptosis induced by glucocorticoids in cultured mouse thymocytes (flow cytometry, propidium iodide); type: cell-based, mouse (C57BL/6)
Protocol: The thymus of C57BL/6 mice aged 4 weeks is removed. Culturing of the thymocytes is carried out for 6 hours in RPMI 1640 medium and in the presence or in the absence of the steroid tested. Apoptosis (fragmentation of the DNA) is measured by flow cytometry after labeling with propidium iodide. The apoptotic phenomenon is checked by electrophoresis of the DNA, which is visualized by ethidium bromide according to the conventional technique (observation of ranges of 200 base pairs).

human keratinocytes [2] = assay: Anti-free radical effect on UVA-irradiated suspension of human keratinocytes (lipid peroxides by chemiluminescence); type: cell-based; conditions: 10^−6 M, calculated on nonirradiated controls and reference of protection
Protocol: Keratinocytes originating from a healthy donor are cultured to the subconfluent stage in medium (KGM) which is specific for the proliferation of the keratinocytes. The suspensions obtained are divided in triplicate into 4 series of which 3 are irradiated for 30 min with a lamp emitting UVA in order to activate the production of free radicals. Among the three irradiated series, one contains the vitamins C+E (0.7%) and serves as a reference of protection, one contains 7α-hydroxy-DHEA at 10^−6M and the last serves as a control.
The free radicals produced generate lipid peroxides which are determined by chemiluminescence (Belghmi et al. J. Biolum. Chemilum. 2: 113-119, 1982). The efficacy of 7α-hydroxy-DHEA is calculated on the basis of nonirradiated controls and of the reference of protection.

[3] = Viability of human keratinocytes in culture (MTT test); type: cell-based; conditions: human, primary human keratinocytes in monolayer culture
Protocol: (§1) Human keratinocyzes are obtained from parts removed by surgery and are cultured in a monolayer to preconfluence. 7α-Hydroxy-DHEA is administered to these cultures at various concentrations in ethanolic solution (10%), each concentration being tested eight times. Controls are carried out with ethanol alone (10%). After 24 hours, the viability of the keratinocytes is measured by testing with MTT (3-(4,5-dimethylthiazol-2-yl)-2,5-diphenyltetrazolium bromide) where the mitochondrial dehydrogenase succinate transforms the MTT into blue crystals of formazan which are soluble in DMSO (Mosmann, J. Immunol. Methods 65: 55-63, 1983). The cell viability is calculated according to the formula:
(§2) Any value greater than 100 indicates a product favoring cell viability.

human keratinocytes [4] = assay: as above; type: cell-based; conditions: concentrations tested 10^−4 M to 10^−8 M
Protocol: as §1, §2

[5] = steroid 10^−5 M together with Dexamethasone 10^−5 M, 6 hours, dexamethasone alone 73.5
[6] = steroid 10^−6 M together with Dexamethasone 10^−6 M, 6 hours, dexamethasone alone 72.7

C[C@]12CC[C@H](O)CC1=C[C@@H](O)[C@@H]1[C@@H]2CC[C@]2(C)C(=O)CC[C@@H]12 [7α-hydroxy-DHEA, 3β,7α-dihydroxy-5-androsten-17-one]
Apoptotic cells (%) [1, 5]: 48.6% | Apoptotic cells (%) [1, 6]: 58.8% | Efficacy (human keratinocytes [2]): 90% | viability at 24 h ([3]; 5.10^−5 M, 24 hours, control 100): 111 ± 7% | viability at 24 h ([3]; 5.10^−6 M, 24 hours, control 100): 147 ± 9% | viability at 24 h ([3]; 5.10^−7 M, 24 hours, control 100): 139 ± 3% | viability at 24 h ([3]; 10^−4 M, 24 hours, control 100): 124 ± 10% | viability at 24 h ([3]; 10^−5 M, 24 hours, control 100): 119 ± 7% | viability at 24 h ([3]; 10^−6 M, 24 hours, control 100): 154 ± 6% | viability at 24 h ([3]; 10^−7 M, 24 hours, control 100): 147 ± 5% | viability at 24 h ([3]; 10^−8 M, 24 hours, control 100): 127 ± 3% | Cytotoxicity on keratinocytes (human keratinocytes [4]): no cytotoxicity was observed

C[C@]12CC[C@H](O)C[C@@H]1C[C@@H](O)[C@@H]1[C@@H]2CC[C@]2(C)C(=O)CC[C@@H]12 [7α-hydroxy-ISOA, 3β,7α-dihydroxy-5α-androstan-17-one]
Apoptotic cells (%) [1, 5]: 46.3% | Apoptotic cells (%) [1, 6]: 72.0%

C[C@]12CC[C@H](O)CC1=CC[C@@H]1[C@@H]2CC[C@]2(C)C(=O)CC[C@@H]12 [DHEA, 3β-hydroxy-5-androstene-17-one, reference compound]
Apoptotic cells (%) [1, 5]: 51.4% | Apoptotic cells (%) [1, 6]: 39.0% | viability at 24 h ([3]; other comparative tests, concentration not given): 100 ± 5%

C[C@@H]1C[C@H]2[C@@H]3CCC4=CC(=O)C=C[C@]4(C)[C@@]3(F)[C@@H](O)C[C@]2(C)[C@@]1(O)C(=O)CO [Dexamethasone, reference compound]
Apoptotic cells (%) ([1]; Dexamethasone 10^−5 M alone, thymocytes cultured 6 hours, ethanol alone 41.5): 73.5% | Apoptotic cells (%) ([1]; Dexamethasone 10^−6 M alone, thymocytes cultured 6 hours, ethanol alone 41.5): 72.7%
